We go through 1 molecule from patent US20250144131A1, “POLYSACCHARIDE COMPOUND WITH A DEFINED MOLECULAR STRUCTURE FOR THE TREATMENT OF PULMONARY FIBROSIS” (SHENZHEN YANDAI INVESTMENT CO., LTD, priority 2023, published 2025).

The subject of test [1] is CD4+ and CD8+ lymphocyte subtypes. Nature of the test: Blood CD3+/CD4+ and CD3+/CD8+ by flow cytometry in LLC-bearing mice. It counts as in vivo, C57 mice. The conditions noted are these: blood after last dose, cisplatin 4, Kanglaite 1404, GLP-4 low-dose 130 mg/kg. As to the method:
LLC cells in logarithmic growth phase at 1×10^7/mL were inoculated at 0.2 mL into the right axilla of 10 purchased normal male C57 mice. Tumor growth was monitored, and tumor-bearing mice were prepared. Once the tumor volume in tumor-bearing mice exceeded 200 mm^3, the tumor tissue was aseptically harvested to prepare a tissue cell suspension. This was mixed at a 1:1 (V:V) ratio with culture medium to create a tumor tissue homogenate. This homogenate was injected into the right axilla of 60 male C57 mice at 0.2 mL per mouse. When the tumor volume in these tumor-bearing mice exceeded 100 mm^3, mice with well-grown tumors without ulceration were selected and randomized into groups based on tumor volume as follows: model control group, cisplatin group (4 mg/kg), Kanglaite soft capsule group (1,404 mg/kg), cisplatin+Kanglaite soft capsule group (4+1,404 mg/kg), cisplatin+GLP-4 low-dose group (4+130 mg/kg), and cisplatin+GLP-4 high-dose group (4+1,170 mg/kg), with 8 mice per group. Additionally, 8 mice were selected as a normal control group. The cisplatin group received intraperitoneal injections of cisplatin, and the other groups were administered their respective drug solutions by gavage (20 mL/kg) or intraperitoneal injection (10 mL/kg), once daily for 27 consecutive days. […]
On the technique in general: Flow cytometry measures light scatter and fluorescence of single cells or particles in a stream.

Another test has as its system H22 cells. Nature of the test: Necrosis and apoptosis of H22 cells (GLP-4 combined with cisplatin). It counts as cell-based. Also on record: unit not given here. Conditions: 48 h, GLP-4 2 mg/mL, cisplatin 5 μg/mL. As to the method: The culture medium was discarded, cells were washed with PBS and digested with 0.125% trypsin. After digestion, the reaction was stopped with medium, and cells were transferred to EP tubes for counting using a cell counter. […] 24 h later, once cells adhered, drugs were added. 48 h after drug administration, cells were digested with trypsin, washed with PBS, and recounted. The corresponding volume of staining solution was added based on cell count, then incubated for 30 min in an incubator. After incubation, cells were chilled to stop staining and maintain viability, followed by imaging using a confocal microscope.
Based on preliminary study results, the dosing concentration for Ganoderma lucidum polysaccharide GLP-4 was set at 2 mg/mL, and for cisplatin (DDP) at 5 μg/mL.

Structures are written as SMILES.

For the molecule `N.N.[Cl][Pt][Cl]` [Cisplatin, cisplatin], in test [1], the “CD3+/CD4+” value was 0.093 ± 0.025 and the “CD3+/CD8+” value is 1.571 ± 0.406. Further, in the test with H22 cells, the “Apoptosis rate, Mean ± SD” value came out at 10.9 ± 1.6; the “Necrosis rate, Mean ± SD” value came to 33.7 ± 8.2; the “Total mortality rate, Mean ± SD” value came to 44.7 ± 9.5. Further, in the test with H22 cells (single value 1), the Apoptosis rate came out at 11.3, the Necrosis rate came to 27.3 and the Total mortality rate came out at 38.7. In addition, in the test on H22 cells (single value 2), the Apoptosis rate was 8.8, the Necrosis rate is on record as 28.6 and the Total mortality rate is reported as 37.3. Moreover, in the test on H22 cells (single value 3), the Apoptosis rate is listed as 12.9, the Necrosis rate is 45.4 and the Total mortality rate is 58.2.
